Results published in patent US6774139B1, “Dual function microbicides” (Parker Hughes Institute, priority 2000, dated 2004).
Where two headings read alike, the source gives them in different places.

How the values were obtained:
human sperm = assay: sperm immobilizing activity (SIA) by CASA; format: cell-based; conditions: for EC50: read-out: EC50 [SIA]; for effective 100% inhibitory concentration (EC100), sperm motility: FIG. 1, CASA
Procedure: To evaluate the effect of each of the 31 thiourea compounds on human sperm motility and kinematics, highly motile fractions of sperm were prepared from donor semen (n=8) by discontinuous (90-45%) gradient centrifugation using Enhance Plus medium (Conception Technologies, San Diego, Calif.) and the “swim-up” method. The swim-up method was used after density gradient centrifugation, washing, and resuspension of sperm in BWW-3% BSA. Pooled swim-up fraction was washed once prior to spermicidal assay.
All donor semen specimens were obtained after informed consent and in compliance with the guidelines of the Parker Hughes Institute Institutional Review Board. […] The stock solutions of thioureas were prepared in DMSO (100 mM) and diluted in assay medium to yield the desired concentrations (up to 1000 μM). Corresponding volume of DMSO (either 0.5% or 1%) was added to control tubes. After 3 hours of incubation at 37° C., the percentage of motile sperm was evaluated by CASA [53, 62-64]. The percent motilities were compared with sham-treated control suspensions of motile sperm.
For CASA, 5-μl of each sperm suspension was loaded into a 20-μm Microcell slide (Conception Technologies) in a counting chamber at 37° C. At least 5-8 fields per slide were scanned for analysis using a Hamilton Thome Integrated Visual Optical System (IVOS), version 10 instrument (Hamilton Thome Research Inc., Danvers, Mass.). Each field was recorded for 30 seconds. The computer calibrations were set at 30 frames at a frame rate of 30/second.
The sperm kinematics parameters that were determined included numbers of motile (MOT) and progressively (PRG) motile sperm; curvilinear velocity (VCL; a measure of the total distance traveled by a given sperm during the acquisition divided by the time elapsed); average path velocity (VAP; the spatially averaged path that eliminates the wobble of the sperm head), straight line velocity (VSL; the straight-line distance from beginning to end of track divided by time taken), beat cross frequency (BCF; frequency of sperm head crossing sperm average path), the amplitude of lateral head displacement (ALH; the mean width of sperm head oscillation), and the derivatives, straightness (STR=VSL/VAP×100) and linearity (LIN=VSL/VCL×100; departure of sperm track from a straight line). Data from each individual cell track were recorded and analyzed. At least 200 motile sperm were analyzed for each aliquot sampled.

[1] = tested on: normal human vaginal epithelial cells; assay: MTT cell viability assay, vaginal epithelial cells; format: cell-based; conditions: read-out: IC50[MTT] vaginal epithelial cells
Procedure: (§1) Briefly, exponential growing vaginal, ectocervical, and endocervical epithelial cells were seeded into 96-well plates at a density of 2×10^4 cells/well and incubated for 24 h at 37° C. prior to drug exposure. On the day of treatment, culture medium was aspirated from the wells and replaced with fresh medium containing serial two-fold drug concentrations ranging from 7.8 μM to 1000 μM. N-9 (IGEPAL CO-630; Rhone Poulenc, Cranbury, N.J.) was diluted in PBS. Triplicate wells were used for each treatment. Culture plates were then incubated for 3 hours before adding 10 μl of MTT solution (5 mg/ml in PBS) to each well. Wells containing only medium and MTT were used as control for each plate. The tetrazolium/formazan reaction was allowed to proceed for 4 hours at 37° C., and then 100 μl of the solubilization buffer (10% sodium dodecyl sulfate in 0.1% HCl) was added to all wells and mixed thoroughly to dissolve the dark blue formazan crystals. After an overnight incubation at 37° C., the OD at 540 nm were measured using a 96-well multiscanner autoreader with the solubilization buffer serving as blank. To translate the OD540 values into the number of live cells in each well, the OD540 values were compared to those of standard OD540-versus-cell number curves generated for each cell line. The percent survival was calculated using the formula: % survival=Live cell number [test]/Live cell number [control]×100. The results were expressed as mean IC50 values for three independent experiments. The IC50 [MTT] was defined as the concentration required for 50% reduction in cell survival.
(§2) Cell viability was measured by the MTT assay.

[2] = tested on: normal human ectocervical epithelial cells; assay: MTT cell viability assay, ectocervical epithelial cells; format: cell-based; conditions: read-out: IC50[MTT] ectocervical epithelial cells
Procedure: as §1, §2

[3] = tested on: normal human endocervical epithelial cells; assay: MTT cell viability assay, endocervical epithelial cells; format: cell-based; conditions: read-out: IC50[MTT] endocervical epithelial cells
Procedure: as §1, §2

HIV-1 strain HTLVIIIB = assay: p24 antigen production in HIV-1 infected PBMCs; format: cell-based; conditions: Human immunodeficiency virus 1, PBMC
Procedure: The HTLVIIIB strain of HIV-1 was propagated in CCRF-CEM cells and the virus stocks obtained from cell-free supernatants of infected cells were titered using MT-2 cells. Cell-free supernatants were harvested and frozen in 1 ml aliquots at −70° C.
Stock solutions (10 mM) of thiourea compounds were prepared in dimethylsulfoxide (DMSO). Cells were cultured for 7 days in 96-well microtiter plates (100 μl/well; 2×10^6 cells/ml, triplicate wells) in the presence and absence of various concentrations (0.001 μM to 100 μM) of the thioureas. Cells from non-infected controls were handled in the same way except the virus was omitted from the preparation. Aliquots of culture supernatants were removed from the wells on the 7th day after infection for p24 antigen as previously described. The p24 enzyme immunoassay was the unmodified kinetic assay available commercially (Coulter Corporation/Immunotech, Inc., Westbrook, Me.). The assay uses a murine monoclonal antibody (mAb) to the HIV core protein coated onto microwell strips to which the antigen present in the test culture supernatant sample binds. The plates were read on a ELISA reader (Molecular Devices, Sunnyvale, Calif.) at 650 nm and p24 levels, expressed as ng/ml, were calculated against known standards supplied by Coulter/Imrunotech, Inc. Percent viral inhibition was calculated by comparing the p24 values for the test substance-treated infected cells with the p24 values for untreated infected cells (i.e., virus controls). […]

[4] = biological target: T1, purified recombinant HIV-1 RT (Human immunodeficiency virus type 1 group M subtype B, UniProt P03366); assay: cell-free Quan-T-RT RT inhibition assay (scintillation proximity); format: biochemical; conditions: IC50 [rRT], purified recombinant HIV-1 RT, cell-free
T1 construct: purified recombinant HIV-1 RT
Procedure: Each of the thirty one thiourea compounds was tested for RT inhibitory activity against purified recombinant HIV-1 RT using the cell-free Quan-T-RT system (Amersham Corp., Arlington Heights, Ill.), which utilizes the scintillation proximity assay principle.

[5] = partition coefficient n-octanol/water (Pa); format: physicochemical; conditions: UV absorption
Procedure: Partition of the test compounds between n-octanol and water as a measure of their lipophilicity was determined by taking the UV absorption of each compound in n-octanol, water-saturated n- octanol (1:1), and n-octanol-saturated water (1:1). The UV absorption maxima were determined by selecting a wavelength with the maximum absorption peak in the water-saturated octanol layer and the corresponding peak in the octanol-saturated water. Three absorption spectra were obtained for each compound. The partion coefficient (Pa) was calculated as the ratio of the compound concentration present in the lipid phase to the compound concentration present in the aqueous phase.

[6] = HIV-1 HTLVIIIB infected human PBMC, p24 antigen on 7th day, read-out: IC50 [p24]
[7] = motile human sperm, 3 hours at 37° C., CASA
[8] = HIV-1 HTLVIIIB infected human PBMC, values in nM, read-out: IC50[p24]

| Structure (SMILES) | EC50 (human sperm; Homo sapiens, Sperm, 3 h) [µM] | IC50 ([1]; 3 h) [µM] | IC50 ([2]; 3 h) [µM] | IC50 ([3]; 3 h) [µM] | IC50 (HIV-1 strain HTLVIIIB; [6]) [nM] | IC50 [4] [nM] | EC50 (human sperm; [7]) [µM] | Pa, Partition coefficient [5] | IC50 ([1]; 3 h exposure, MTT) [µM] | IC50 ([2]; 3 h exposure, MTT) [µM] | IC50 ([3]; 3 h exposure, MTT) [µM] | IC50 (HIV-1 strain HTLVIIIB; [8]) [nM] | IC50 (HIV-1 strain HTLVIIIB; read-out: IC50 [p24]) [nM] | IC50 (HIV-1 strain HTLVIIIB; read-out: IC50[p24]) [nM] | effective 100% inhibitory concentration (EC100), sperm motility (human sperm) [mM] |
| --- | --- | --- | --- | --- | --- | --- | --- | --- | --- | --- | --- | --- | --- | --- | --- |
| CCCCCCCCCc1ccc(OCCOCCOCCOCCOCCOCCOCCOCCOCCO)cc1 [Compound N-9, nonoxynol-9, reference compound] | 81 | 64 | 58 | 32 |  |  |  |  |  |  |  |  |  |  |  |
| S=C(NCCc1ccccn1)Nc1ccccn1 [HI 207] |  |  |  |  | 270 | 390 | 279 | 2.32 | > 1000 | > 1000 | > 1000 |  |  |  |  |
| Fc1ccccc1CCNC(=S)Nc1ccc(Br)cn1 [HI 240] |  |  |  |  | < 1 | 600 | 147 | 1.20 | > 1000 | > 1000 | > 1000 | < 1 |  |  |  |
| S=C(NCCc1ccccc1Cl)Nc1ccc(Br)cn1 [HI 253] |  |  |  |  | < 1 | 700 | 70 | 1.04 | > 1000 | > 1000 | > 1000 | < 1 |  |  |  |
| S=C(NCCC1=CCCCC1)Nc1ccc(Br)cn1 [HI 346] |  |  |  |  |  | 600 | 42 | 8.6 | > 1000 | 765 ± 400 | 580 ± 48 |  | 3 | 3 | 0.25 |
| S=C(NCCC1=CCCCC1)Nc1ccc(Cl)cn1 [HI 445] |  |  |  |  |  |  | 57 | 6.3 | 578 ± 25 | 692 ± 139 | 185 ± 21 |  | 3 | 3 | 1 |
